Experimental data as given in ChEMBL document CHEMBL4219252, “Synthesis, antimycobacterial activity and influence on mycobacterial InhA and PknB of 12-membered cyclodepsipeptides” (Bioorg Med Chem, 2018).
The source made the active and inactive calls. The rule behind the calls is not given here.

The molecules below were run on Escherichia coli (assay: Antibacterial activity against Escherichia coli SG458 incubated overnight at 37 degC measured after 24 hrs by agar diffusion method).
Format: functional, organism-based
`C[C@H]1OC(=O)CCCNC(=O)[C@@H](NC(=O)c2ccccn2)[C@@H](C)OC1=O` was tested, and the Activity was “inactive”. In the case of `C[C@@H](OCc1ccccc1)C(=O)O[C@H](C)[C@H](NC(=O)c1ncccc1F)C(=O)NCCCC(=O)OCc1ccccc1`, the Activity is reported as “inactive”. In the case of `C[C@@H](OC(=O)COCc1ccccc1)[C@H](NC(=O)c1ccccc1O)C(=O)NCCCC(=O)OCc1ccccc1`, the Activity is reported as “inactive”. `COC(=O)CCC(Cc1ccccc1)NC(=O)[C@@H](NC(=O)OC(C)(C)C)[C@@H](C)OC(=O)[C@@H](C)O` (stereo not given in full) was tested, and the Activity was “inactive”. In the case of `C[C@H]1OC(=O)CCC(Cc2ccccc2)NC(=O)[C@@H](NC(=O)OC(C)(C)C)[C@@H](C)OC1=O` (stereo in doubt; form 1), the Activity is reported as “inactive”. For `C[C@@H](OC(=O)COCc1ccccc1)[C@H](NC(=O)c1ncccc1F)C(=O)NCCCC(=O)OCc1ccccc1`, the Activity was “inactive”. In the case of `C[C@H]1OC(=O)c2ccccc2OC(=O)CCNC(=O)[C@H]1NC(=O)OC(C)(C)C`, the Activity is reported as “inactive”. For `C[C@@H](OCc1ccccc1)C(=O)O[C@H](C)[C@H](NC(=O)c1ccccn1)C(=O)NCCCC(=O)OCc1ccccc1`, the Activity was “inactive”. With `C[C@H]1OC(=O)CCC(Cc2ccccc2)NC(=O)[C@@H](NC(=O)OC(C)(C)C)[C@@H](C)OC1=O` (stereo in doubt; form 2) the Activity was “inactive”. With `C[C@H]1OC(=O)c2ccccc2OC(=O)CCNC(=O)[C@H]1NC(=O)c1ncccc1O` the Activity was “inactive”. For `C[C@H]1OC(=O)COC(=O)CCCNC(=O)[C@H]1NC(=O)c1ncccc1O`, the Activity was “inactive”. For `C[C@@H](OC(=O)COCc1ccccc1)[C@H](NC(=O)c1ccccn1)C(=O)NCCCC(=O)OCc1ccccc1`, the Activity was “inactive”. In the case of `C[C@@H](OCc1ccccc1)C(=O)O[C@H](C)[C@H](NC(=O)c1ccccc1O)C(=O)NCCCC(=O)OCc1ccccc1`, the Activity is reported as “inactive”. With `C[C@H]1OC(=O)COC(=O)CCCNC(=O)[C@H]1NC(=O)c1ccccn1` the Activity was “inactive”.

These molecules were tested on Bacillus spizizenii (assay: Antibacterial activity against Bacillus subtilis ATCC 6633 incubated overnight at 37 degC measured after 24 hrs by agar diffusion method).
Format: functional, organism-based
For `C[C@H]1OC(=O)CCCNC(=O)[C@@H](NC(=O)c2ccccn2)[C@@H](C)OC1=O`, the Activity was “inactive”. For `C[C@@H](OCc1ccccc1)C(=O)O[C@H](C)[C@H](NC(=O)c1ncccc1F)C(=O)NCCCC(=O)OCc1ccccc1`, the Activity was “inactive”. `C[C@@H](OC(=O)COCc1ccccc1)[C@H](NC(=O)c1ccccc1O)C(=O)NCCCC(=O)OCc1ccccc1` was tested, and the Activity was “inactive”. In the case of `COC(=O)CCC(Cc1ccccc1)NC(=O)[C@@H](NC(=O)OC(C)(C)C)[C@@H](C)OC(=O)[C@@H](C)O` (stereo not given in full), the Activity is reported as “inactive”. In the case of `C[C@H]1OC(=O)CCC(Cc2ccccc2)NC(=O)[C@@H](NC(=O)OC(C)(C)C)[C@@H](C)OC1=O` (stereo in doubt; form 1), the Activity is reported as “inactive”. With `C[C@@H](OC(=O)COCc1ccccc1)[C@H](NC(=O)c1ncccc1F)C(=O)NCCCC(=O)OCc1ccccc1` the Activity was “inactive”. `C[C@H]1OC(=O)c2ccccc2OC(=O)CCNC(=O)[C@H]1NC(=O)OC(C)(C)C` was tested, and the Activity was “inactive”. `C[C@@H](OCc1ccccc1)C(=O)O[C@H](C)[C@H](NC(=O)c1ccccn1)C(=O)NCCCC(=O)OCc1ccccc1` was tested, and the Activity was “inactive”. `C[C@H]1OC(=O)CCC(Cc2ccccc2)NC(=O)[C@@H](NC(=O)OC(C)(C)C)[C@@H](C)OC1=O` (stereo in doubt; form 2) was tested, and the Activity was “inactive”. In the case of `C[C@H]1OC(=O)c2ccccc2OC(=O)CCNC(=O)[C@H]1NC(=O)c1ncccc1O`, the Activity is reported as “inactive”. In the case of `C[C@H]1OC(=O)COC(=O)CCCNC(=O)[C@H]1NC(=O)c1ncccc1O`, the Activity is reported as “inactive”. In the case of `C[C@@H](OC(=O)COCc1ccccc1)[C@H](NC(=O)c1ccccn1)C(=O)NCCCC(=O)OCc1ccccc1`, the Activity is reported as “inactive”. For `C[C@@H](OCc1ccccc1)C(=O)O[C@H](C)[C@H](NC(=O)c1ccccc1O)C(=O)NCCCC(=O)OCc1ccccc1`, the Activity was “inactive”. With `C[C@H]1OC(=O)COC(=O)CCCNC(=O)[C@H]1NC(=O)c1ccccn1` the Activity was “inactive”.

The molecules below were run on Sporobolomyces salmonicolor (assay: Antifungal activity against Sporobolomyces salmonicolor 549 incubated overnight at 30 degC measured after 24 hrs by agar diffusion method).
Format: functional, organism-based
In the case of `C[C@H]1OC(=O)CCCNC(=O)[C@@H](NC(=O)c2ccccn2)[C@@H](C)OC1=O`, the Activity is reported as “inactive”. With `C[C@@H](OCc1ccccc1)C(=O)O[C@H](C)[C@H](NC(=O)c1ncccc1F)C(=O)NCCCC(=O)OCc1ccccc1` the Activity was “inactive”. With `C[C@@H](OC(=O)COCc1ccccc1)[C@H](NC(=O)c1ccccc1O)C(=O)NCCCC(=O)OCc1ccccc1` the Activity was “inactive”. `COC(=O)CCC(Cc1ccccc1)NC(=O)[C@@H](NC(=O)OC(C)(C)C)[C@@H](C)OC(=O)[C@@H](C)O` (stereo not given in full) was tested, and the Activity was “inactive”. In the case of `C[C@H]1OC(=O)CCC(Cc2ccccc2)NC(=O)[C@@H](NC(=O)OC(C)(C)C)[C@@H](C)OC1=O` (stereo in doubt; form 1), the Activity is reported as “inactive”. In the case of `C[C@@H](OC(=O)COCc1ccccc1)[C@H](NC(=O)c1ncccc1F)C(=O)NCCCC(=O)OCc1ccccc1`, the Activity is reported as “inactive”. `C[C@H]1OC(=O)c2ccccc2OC(=O)CCNC(=O)[C@H]1NC(=O)OC(C)(C)C` was tested, and the Activity was “inactive”. For `C[C@@H](OCc1ccccc1)C(=O)O[C@H](C)[C@H](NC(=O)c1ccccn1)C(=O)NCCCC(=O)OCc1ccccc1`, the Activity was “inactive”. With `C[C@H]1OC(=O)CCC(Cc2ccccc2)NC(=O)[C@@H](NC(=O)OC(C)(C)C)[C@@H](C)OC1=O` (stereo in doubt; form 2) the Activity was “inactive”. For `C[C@H]1OC(=O)c2ccccc2OC(=O)CCNC(=O)[C@H]1NC(=O)c1ncccc1O`, the Activity was “inactive”. `C[C@H]1OC(=O)COC(=O)CCCNC(=O)[C@H]1NC(=O)c1ncccc1O` was tested, and the Activity was “inactive”. In the case of `C[C@@H](OC(=O)COCc1ccccc1)[C@H](NC(=O)c1ccccn1)C(=O)NCCCC(=O)OCc1ccccc1`, the Activity is reported as “inactive”. In the case of `C[C@@H](OCc1ccccc1)C(=O)O[C@H](C)[C@H](NC(=O)c1ccccc1O)C(=O)NCCCC(=O)OCc1ccccc1`, the Activity is reported as “inactive”. With `C[C@H]1OC(=O)COC(=O)CCCNC(=O)[C@H]1NC(=O)c1ccccn1` the Activity was “inactive”.

Each molecule was assayed on Mycolicibacterium smegmatis (assay: Antimycobacterial activity against Mycobacterium smegmatis SG987 incubated overnight at 37 degC measured after 24 hrs by agar diffusion method).
Format: functional
With `COC(=O)CCC(Cc1ccccc1)NC(=O)[C@@H](NC(=O)OC(C)(C)C)[C@@H](C)OC(=O)[C@@H](C)O` (stereo not given in full) the Activity was “inactive”.

Each molecule was assayed on Mycolicibacterium vaccae (assay: Antimycobacterial activity against Mycobacterium vaccae IMET 10670 incubated overnight at 37 degC measured after 24 hrs by agar diffusion method).
Format: functional
With `COC(=O)CCC(Cc1ccccc1)NC(=O)[C@@H](NC(=O)OC(C)(C)C)[C@@H](C)OC(=O)[C@@H](C)O` (stereo not given in full) the Activity was “inactive”.

The molecules below were run on Mycolicibacterium smegmatis (assay: Antimycobacterial activity against Mycobacterium smegmatis SG987 after 48 hrs by resazurin microtiter assay).
Format: functional
In the case of `C[C@H]1OC(=O)c2ccccc2OC(=O)CCNC(=O)[C@H]1NC(=O)c1ncccc1O`, the Activity is reported as “inactive”.

The molecules below were run on Mycobacterium tuberculosis (assay: Antimycobacterial activity against Mycobacterium tuberculosis H37Rv after 7 days by BacTiter-Glo microbial cell viability assay).
Format: functional
`C[C@H]1OC(=O)c2ccccc2OC(=O)CCNC(=O)[C@H]1NC(=O)c1ncccc1O` was tested, and the Activity was “inactive”.

The molecules below were run against T1, Serine/threonine-protein kinase PknB (Mycobacterium tuberculosis) (UniProt P9WI81) (assay: Inhibition of Mycobacterium tuberculosis GST-tagged PknB expressed in Escherichia coli assessed as reduction in PknB autophosphorylation at 0.24 to 4.8 uM preincubated for 30 mins followed by [gamma32P]ATP addition measured after 30 mins by scintillation counting method).
T1 sequence (whole entry): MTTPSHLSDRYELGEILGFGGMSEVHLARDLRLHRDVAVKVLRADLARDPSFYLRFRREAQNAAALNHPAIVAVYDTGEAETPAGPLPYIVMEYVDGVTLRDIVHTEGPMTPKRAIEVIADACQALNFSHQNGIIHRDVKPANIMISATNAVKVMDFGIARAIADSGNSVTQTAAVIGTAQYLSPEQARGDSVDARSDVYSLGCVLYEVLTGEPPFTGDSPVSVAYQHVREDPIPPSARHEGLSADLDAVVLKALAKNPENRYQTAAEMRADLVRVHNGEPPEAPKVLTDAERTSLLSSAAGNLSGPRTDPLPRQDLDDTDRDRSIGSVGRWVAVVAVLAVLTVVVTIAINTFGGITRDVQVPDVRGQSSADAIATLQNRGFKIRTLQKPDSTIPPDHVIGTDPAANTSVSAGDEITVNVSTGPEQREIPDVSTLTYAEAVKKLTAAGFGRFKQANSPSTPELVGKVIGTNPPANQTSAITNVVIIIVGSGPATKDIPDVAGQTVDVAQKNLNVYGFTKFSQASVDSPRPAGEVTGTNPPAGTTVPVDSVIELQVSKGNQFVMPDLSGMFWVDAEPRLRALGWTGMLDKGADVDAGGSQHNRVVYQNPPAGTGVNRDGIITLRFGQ
In the case of `COC(=O)CCC(Cc1ccccc1)NC(=O)[C@@H](NC(=O)OC(C)(C)C)[C@@H](C)OC(=O)[C@@H](C)O` (stereo not given in full), the inhibition is reported as “inactive”. For `C[C@H]1OC(=O)CCC(Cc2ccccc2)NC(=O)[C@@H](NC(=O)OC(C)(C)C)[C@@H](C)OC1=O` (stereo in doubt; form 2), the inhibition was “inactive”.

These molecules were tested against T1, Serine/threonine-protein kinase PknB (Mycobacterium tuberculosis) (assay: Induction of Mycobacterium tuberculosis GST-tagged PknB autophosphorylation expressed in Escherichia coli at 4.8 uM preincubated for 30 mins followed by [gamma32P]ATP addition measured after 30 mins by scintillation counting method relative to control).
With `C[C@H]1OC(=O)CCC(Cc2ccccc2)NC(=O)[C@@H](NC(=O)OC(C)(C)C)[C@@H](C)OC1=O` (stereo in doubt; form 2) the Activity was 60% and the fold change (FC) was 2.
